According to patent US9120854B2, “Detection and treatment of pancreatic, ovarian and other cancers” (SEATTLE GENETICS, INC., priority 2008, dated 2015):
Read-outs that look alike come from different tables or passages of the source. Square brackets hold non-standard residues; d marks the D form. Peptide text beside a SMILES is read from it. Dolaproine = CO[C@@H]([C@@H]1CCCN1)[C@@H](C)C(=O)O; Dil = CC[C@H](C)[C@H](NC)[C@@H](CC(=O)O)OC; NMeV = CN[C@H](C(=O)O)C(C)C

Experiments:
SKOV-3 cells = experiment: In vitro cytotoxic activity of h1F6 antibody drug conjugates on SKOV-3 cells (CelltiterGlo viability); assay type: cell-based; conditions: 96 hours, viability by Promega CelltiterGlo
Procedure: (See International Patent Publication WO 2006-113909.) The cells were incubated with the following anti-CD70 antibody drug conjugates: h1F6-vc-MMAF(4), h1F6vc-MMAE(4), 1F6mc-MMAF(4), or h1F6mc-MMAF(8) or free MMAF. (See the specification and U.S. Patent Application Publication Nos. 2005-0238649 and 2006-0233794 for a description of the drug linkers. The number in parentheses after each conjugate indicates the average drug loading per antibody.) The SKOV-3 cells were incubated with the conjugates at the indicated concentrations for 96 hours. For these studies, viability was determined using Promega CelltiterGlo.

[1] = test system: native CD70 protein (modified cynomolgus CD70); experiment: Binding of h1F6 to native CD70 on transfected pancreatic cell lines; conditions: transfected HPAFII, PANC-1 and MiaPaCa-2 cell lines

CC[C@H](C)[C@@H]([C@@H](CC(=O)N1CCC[C@H]1[C@H](OC)[C@@H](C)C(=O)N[C@@H](Cc1ccccc1)C(=O)O)OC)N(C)C(=O)[C@@H](NC(=O)[C@@H](NC)C(C)C)C(C)C [MMAF, dovaline-valine-dolaisoleunine-dolaproine-phenylalanine, reference compound] (H-[NMeV]V[Dil][Dolaproine]F-OH)
IC50 (SKOV-3 cells; free MMAF, read-out: IC50): 18 nM

h1F6: humanized form of anti-CD70 monoclonal antibody 1F6, binds native CD70
binding to native CD70 protein [1]: binds

B1: h1F6mc-MMAF(8) (conjugate, chains of the INN, looked up)
VH: QVQLVQSGAEVKKPGASVKVSCKASGYTFTNYGMNWVRQAPGQGLKWMGWINTYTGEPTYADAFKGRVTMTRDTSISTAYMELSRLRSDDTAVYYCARDYGDYGMDYWGQGTTVTVSS
VL: DIVMTQSPDSLAVSLGERATINCRASKSVSTSGYSFMHWYQQKPGQPPKLLIYLASNLESGVPDRFSGSGSGTDFTLTISSLQAEDVAVYYCQHSREVPWTFGQGTKVEIK
modifications: maleimidocaproyl-MMAF, 8 drugs per antibody
IC50 (SKOV-3 cells): 12 ng/mL
